Biological target: histone deacetylase, subtype 1 (HDAC1) (Homo sapiens (Human), UniProt Q13547)
Assay: HDAC1-Flag in vitro deacetylation assay
Assay type: biochemical
Conditions: IP = inflection point; read-out: HDAC1 IP (inflection point)
Protocol: Novel compounds were tested for their ability to inhibit histone deacetylase, subtype 1 (HDAC1) using an in vitro deacetylation assay. The enzyme source for this assay was an epitope-tagged human HDAC1 complex immuno-purified from stably expressing mammalian cells. The substrate consisted of a commercial product containing an acetylated lysine side chain (BIOMOL Research Laboratories, Inc., Plymouth Meeting, Pa.). Upon deacetylation of the substrate by incubation with the purified HDAC1 complex, a fluorophore is produced that is directly proportional to the level of deacetylation.

Sequence of histone deacetylase, subtype 1 (HDAC1) (Q13547 whole entry): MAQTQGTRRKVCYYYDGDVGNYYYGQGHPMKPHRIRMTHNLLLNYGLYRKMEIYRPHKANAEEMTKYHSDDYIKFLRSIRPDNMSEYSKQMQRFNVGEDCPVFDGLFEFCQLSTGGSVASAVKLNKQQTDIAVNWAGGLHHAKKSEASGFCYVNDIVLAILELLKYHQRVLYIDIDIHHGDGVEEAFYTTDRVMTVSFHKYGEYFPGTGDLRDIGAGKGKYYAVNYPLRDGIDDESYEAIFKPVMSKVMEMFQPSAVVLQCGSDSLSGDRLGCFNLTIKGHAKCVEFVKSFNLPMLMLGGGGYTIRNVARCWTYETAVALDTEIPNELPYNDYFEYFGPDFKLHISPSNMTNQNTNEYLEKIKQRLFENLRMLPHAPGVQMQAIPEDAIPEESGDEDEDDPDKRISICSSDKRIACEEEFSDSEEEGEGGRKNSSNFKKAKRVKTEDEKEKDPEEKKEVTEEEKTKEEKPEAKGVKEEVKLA

CN(Cc1ccc(C(=O)Nc2cc(-c3ccccc3)ccc2O)cc1)Cc1cnn(C)c1 [Example 114, N-(4-hydroxy-3-biphenylyl)-4-({methyl[(1-methyl-1H-pyrazol-4-yl)methyl]amino}methyl)benzamide]
IC50: 24 nM

O=C(Nc1cc(-c2ccccc2)ccc1O)c1ccc(CNCCc2ccccc2)cc1 [Example 71, N-(4-hydroxy-3-biphenylyl)-4-{[(2-phenylethyl)amino]methyl}benzamide]
IC50: 970 nM

O=C(Nc1cc(-c2ccccc2)ccc1O)c1ccc(CN2CCOCC2)cc1 [Example 85, N-(4-hydroxy-3-biphenylyl)-4-(4-morpholinylmethyl)benzamide]
IC50: 48 nM

CN(C)C1CCN(Cc2ccc(C(=O)Nc3cc(-c4ccccc4)ccc3O)cc2)C1 (stereo not drawn) [Example 106, 4-{[3-(dimethylamino)-1-pyrrolidinyl]methyl}-N-(4-hydroxy-3-biphenylyl)benzamide]
IC50: 50 nM

CN(C)CCNCc1ccc(C(=O)Nc2cc(-c3ccccc3)ccc2O)cc1 [Example 80, 4-({[2-(dimethylamino)ethyl]amino}methyl)-N-(4-hydroxy-3-biphenylyl)benzamide]
IC50: 120 nM

CN(Cc1ccc(C(=O)Nc2cc(-c3ccccc3)ccc2O)cc1)C1CCOC1 (stereo not drawn) [Example 112, N-(4-hydroxy-3-biphenylyl)-4-{[methyl(tetrahydro-3-furanyl)amino]methyl}benzamide]
IC50: 43 nM

CC(C)NCCNCc1ccc(C(=O)Nc2cc(-c3ccccc3)ccc2O)cc1 [Example 91, N-(4-hydroxy-3-biphenylyl)-4-({[2-(isopropylamino)ethyl]amino}methyl)benzamide]
IC50: 44 nM

CC(C)(C)OC(=O)NCc1ccc(C(=O)Nc2cc(-c3ccccc3)ccc2O)cc1 [Example 7, 1,1-dimethylethyl[(4-{[(4-hydroxybiphenyl-3-yl)amino]carbonyl}phenyl)methyl]carbamate]
IC50: 70 nM

NCCNCc1ccc(C(=O)Nc2cc(-c3ccccc3)ccc2O)cc1 [Example 107, 4-{[(2-aminoethyl)amino]methyl}-N-(4-hydroxy-3-biphenylyl)benzamide]
IC50: 72 nM

CCN(C)Cc1ccc(C(=O)Nc2cc(-c3ccccc3)ccc2O)cc1 [Example 94, 4-{[ethyl(methyl)amino]methyl}-N-(4-hydroxy-3-biphenylyl)benzamide]
IC50: 31 nM

O=C(Nc1cc(-c2ccccc2)ccc1O)c1ccc(CNCCn2cccn2)cc1 [Example 111, N-(4-hydroxy-3-biphenylyl)-4-({[2-(1H-pyrazol-1-yl)ethyl]amino}methyl)benzamide]
IC50: 33 nM

CNCCCN(C)Cc1ccc(C(=O)Nc2cc(-c3ccccc3)ccc2O)cc1 [Example 99, N-(4-hydroxy-3-biphenylyl)-4-({methyl[3-(methylamino)propyl]amino}methyl)benzamide]
IC50: 18 nM

O=C(Nc1cc(-c2ccccc2)ccc1O)c1ccc(CN2CCCC2c2ccccn2)cc1 (stereo not drawn) [Example 116, N-(4-hydroxy-3-biphenylyl)-4-{[2-(2-pyridinyl)-1-pyrrolidinyl]methyl}benzamide]
IC50: 280 nM

CN1CCC(CN(C)Cc2ccc(C(=O)Nc3cc(-c4ccccc4)ccc3O)cc2)CC1 [Example 115, N-(4-hydroxy-3-biphenylyl)-4-({methyl[(1-methyl-4-piperidinyl)methyl]amino}methyl)benzamide]
IC50: 78 nM

O=C(Nc1cc(-c2ccccc2)ccc1O)c1ccc(CN2CCc3ccccc3C2)cc1 [Example 90, 4-(3,4-dihydro-2(1H)-isoquinolinylmethyl)-N-(4-hydroxy-3-biphenylyl)benzamide]
IC50: 250 nM

CN1CCC(CNCc2ccc(C(=O)Nc3cc(-c4ccccc4)ccc3O)cc2)C1 (stereo not drawn) [Example 110]
IC50: 180 nM

O=C(Nc1cc(-c2ccccc2)ccc1O)c1ccc(CNCC2CC2)cc1 [Example 78, 4-{[(cyclopropylmethyl)amino]methyl}-N-(4-hydroxy-3-biphenylyl)benzamide]
IC50: 72 nM

CN(Cc1ccccc1)Cc1ccc(C(=O)Nc2cc(-c3ccccc3)ccc2O)cc1 [Example 88, 4-{[benzyl(methyl)amino]methyl}-N-(4-hydroxy-3-biphenylyl)benzamide]
IC50: 350 nM

COC(=O)c1ccc(-c2ccc(N)c(NC(=O)c3ccc(CNC(=O)OCc4cccnc4)cc3)c2)cc1 [Example 2, methyl 4′-amino-3′-[({4-[({[(pyridin-3-ylmethyl)oxy]carbonyl}amino)methyl]phenyl}carbonyl)amino]biphenyl-4-carboxylate]
IC50: 81 nM

O=C(Nc1cc(-c2ccccc2)ccc1O)c1ccc(CNC2CC2)cc1 [Example 75, 4-[(cyclopropylamino)methyl]-N-(4-hydroxy-3-biphenylyl)benzamide]
IC50: 76 nM

CN(Cc1ccc(C(=O)Nc2cc(-c3ccccc3)ccc2O)cc1)Cc1cnccn1 [Example 113, N-(4-hydroxy-3-biphenylyl)-4-{[methyl(2-pyrazinylmethyl)amino]methyl}benzamide]
IC50: 31 nM

O=C(Nc1cc(-c2ccccc2)ccc1O)c1ccc(CNCCc2ccc(Br)cc2)cc1 [Example 72, 4-({[2-(4-bromophenyl)ethyl]amino}methyl)-N-(4-hydroxy-3-biphenylyl)benzamide]
IC50: 1800 nM

CC(C)OCCCNCc1ccc(C(=O)Nc2cc(-c3ccccc3)ccc2O)cc1 [Example 86, N-(4-hydroxy-3-biphenylyl)-4-{[(3-isopropoxypropyl)amino]methyl}benzamide]
IC50: 95 nM

COc1cccc(CNCc2ccc(C(=O)Nc3cc(-c4ccccc4)ccc3O)cc2)c1 [Example 117, N-(4-hydroxy-3-biphenylyl)-4-{[(3-methoxybenzyl)amino]methyl}benzamide]
IC50: 4300 nM

O=C(Nc1cc(-c2ccccc2)ccc1O)c1ccc(CNC2Cc3ccccc3C2)cc1 [Example 108, 4-[(2,3-dihydro-1H-inden-2-ylamino)methyl]-N-(4-hydroxy-3-biphenylyl)benzamide]
IC50: 160 nM

CN(CCc1ccccc1)Cc1ccc(C(=O)Nc2cc(-c3ccccc3)ccc2O)cc1 [Example 93, N-(4-hydroxy-3-biphenylyl)-4-{[methyl(2-phenylethyl)amino]methyl}benzamide]
IC50: 340 nM

O=C(Nc1cc(-c2ccccc2)ccc1O)c1ccc(CNCCCc2ccccc2)cc1 [Example 89, N-(4-hydroxy-3-biphenylyl)-4-{[(3-phenylpropyl)amino]methyl}benzamide]
IC50: 450 nM

O=C(Nc1cc(-c2ccccc2)ccc1O)c1ccc(CNC2CCCC2)cc1 [Example 77, 4-[(cyclopentylamino)methyl]-N-(4-hydroxy-3-biphenylyl)benzamide]
IC50: 150 nM

O=C(Nc1cc(-c2ccccc2)ccc1O)c1ccc(CNCCNc2ccccc2)cc1 [Example 97, 4-{[(2-anilinoethyl)amino]methyl}-N-(4-hydroxy-3-biphenylyl)benzamide]
IC50: 260 nM

O=C(Nc1cc(-c2ccccc2)ccc1O)c1ccc(CN2Cc3ccccc3C2)cc1 [Example 95, 4-(1,3-dihydro-2H-isoindol-2-ylmethyl)-N-(4-hydroxy-3-biphenylyl)benzamide]
IC50: 27000 nM

O=C(Nc1cc(-c2ccccc2)ccc1O)c1ccc(CNc2ccncc2)cc1 [Example 84, N-(4-hydroxy-3-biphenylyl)-4-[(4-pyridinylamino)methyl]benzamide]
IC50: 9.9 nM

Cc1nc(-c2ccccc2)sc1CNCc1ccc(C(=O)Nc2cc(-c3ccccc3)ccc2O)cc1 [Example 74, N-(4-hydroxy-3-biphenylyl)-4-({[(4-methyl-2-phenyl-1,3-thiazol-5-yl)methyl]amino}methyl)benzamide]
IC50: 690 nM

Nc1ccc(-c2cccnc2)cc1NC(=O)c1ccc(CNC(=O)OCc2cccnc2)cc1 [Example 3, pyridin-3-ylmethyl[(4-{[(2-amino-5-pyridin-3-ylphenyl)amino]carbonyl}phenyl)methyl]carbamate]
IC50: 17 nM

CN(CCc1ccncc1)Cc1ccc(C(=O)Nc2cc(-c3ccccc3)ccc2O)cc1 [Example 104, N-(4-hydroxy-3-biphenylyl)-4-({methyl[2-(4-pyridinyl)ethyl]amino}methyl)benzamide]
IC50: 33 nM

NCc1ccc(C(=O)Nc2cc(-c3ccccc3)ccc2O)cc1 [Example 8, 4-(aminomethyl)-N-(4-hydroxybiphenyl-3-yl)benzamide]
IC50: 28 nM

O=C(Nc1cc(-c2ccccc2)ccc1O)c1ccc(CNCc2cccs2)cc1 [Example 98, N-(4-hydroxy-3-biphenylyl)-4-{[(2-thienylmethyl)amino]methyl}benzamide]
IC50: 2100 nM

CC(C)CCNCc1ccc(C(=O)Nc2cc(-c3ccccc3)ccc2O)cc1 [Example 92, N-(4-hydroxy-3-biphenylyl)-4-{[(3-methylbutyl)amino]methyl}benzamide]
IC50: 100 nM

CNCCN(C)Cc1ccc(C(=O)Nc2cc(-c3ccccc3)ccc2O)cc1 [Example 101, N-(4-hydroxy-3-biphenylyl)-4-({methyl[2-(methylamino)ethyl]amino}methyl)benzamide]
IC50: 35 nM

O=C(Nc1cc(-c2ccccc2)ccc1O)c1ccc(CNCCCN2CCCC2)cc1 [Example 82, N-(4-hydroxy-3-biphenylyl)-4-({[3-(1-pyrrolidinyl)propyl]amino}methyl)benzamide]
IC50: 91 nM

O=C(Nc1cc(-c2ccccc2)ccc1O)c1ccc(CNc2ccccc2)cc1 [Example 76, 4-(anilinomethyl)-N-(4-hydroxy-3-biphenylyl)benzamide]
IC50: 89 nM

O=C(Nc1cc(-c2ccccc2)ccc1O)c1ccc(CNCCc2cccnc2)cc1 [Example 105, N-(4-hydroxy-3-biphenylyl)-4-({[2-(3-pyridinyl)ethyl]amino}methyl)benzamide]
IC50: 2500 nM

CCN1CCC(CNCc2ccc(C(=O)Nc3cc(-c4ccccc4)ccc3O)cc2)CC1 [Example 102, 4-({[(1-ethyl-4-piperidinyl)methyl]amino}methyl)-N-(4-hydroxy-3-biphenylyl)benzamide]
IC50: 65 nM

— US9096559B2, “4-carboxybenzylamino derivatives as histone deacetylase inhibitors” (Merck Sharp & Dohme Corp., priority 2007, dated 2015)
